The source of these data is publication PMC4499255, “Monitoring Conformational Changes in the NDM-1 Metallo-β-lactamase by ^19F NMR Spectroscopy” (Angewandte Chemie (International Ed. in English), 2014).

Read-outs that look alike come from different tables or passages of the source.

Data set [1] deals with di-ZnII-NDM-1* (BFA-labeled M67C NDM-1) (Klebsiella pneumoniae, UniProt C7C422, M67C). The data set can be described thus: 19F NMR ligand titration / binding assay. On the procedure: To calculate the molar fraction of protein–ligand complex, Equation (1) was used: [drawing 1] (1) where [P0] is the total protein concentration and [L0] is the total ligand concentration titrated into solution. […]
(§1) buffer was prepared freshly prior to the reaction.
Kinetic and inhibition analyses were performed as described1. K measurements were performed […]
(§2) nM NDM-1* for nitrocefin measurements. […]
with rf field of 3.125 kHz.
768 scans and a recovery delay of 1s. Data were processed with 3 Hz Lorentzian line broadening […]
Trifluoroacetic acid (TFA, 50 µM) […]
was used as an internal standard. All inhibitor incubations were compared to appropriate NDM-1* […]
A DMSO titration curve was used for reference
Metal binding experiments

In data set [2] the target is T1, NDM-1 (Klebsiella pneumoniae, UniProt C7C422).
Data set [3] concerns the target NDM-1* (BFA-labeled M67C NDM-1) (Klebsiella pneumoniae, UniProt C7C422, M67C). Type of data set: biochemical. The following applies: labeled NDM-1*; for Km: substrate affinity. On the procedure:
as §1
Kinetic and inhibition analyses were performed as described1. K measurements were performed
as §2

Data set [4] has as its target T1, NDM-1. The following applies: unlabeled NDM-1; cited from earlier work.
The subject of data set [5] is C[C@@H](O)[C@H]1C(=O)N2C(C(=O)O)=C(S[C@@H]3CN[C@H](C(=O)N(C)C)C3)[C@H](C)[C@H]12. The data set can be described thus: purified protein, by the assay type. Particulars: other: unlabeled NDM-1; substrate affinity; 25.0 °C.
Experimental: We then investigated the kinetic properties of NDM-1* compared to unlabeled NDM-1.
using 0.5 nM NDM-1 and 1 nM NDM-1* for meropenem measurements and 0.25 nM NDM-1 and 2

Sequence of NDM-1* (BFA-labeled M67C NDM-1) (C7C422 37-270 M67C): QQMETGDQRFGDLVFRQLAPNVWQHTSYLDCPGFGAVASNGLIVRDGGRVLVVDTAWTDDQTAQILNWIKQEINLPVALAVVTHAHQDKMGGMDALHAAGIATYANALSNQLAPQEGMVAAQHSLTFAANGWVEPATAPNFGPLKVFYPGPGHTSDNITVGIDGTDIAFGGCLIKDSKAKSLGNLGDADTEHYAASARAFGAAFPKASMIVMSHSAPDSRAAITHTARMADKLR
T1 sequence (C7C422 37-270 limits assumed): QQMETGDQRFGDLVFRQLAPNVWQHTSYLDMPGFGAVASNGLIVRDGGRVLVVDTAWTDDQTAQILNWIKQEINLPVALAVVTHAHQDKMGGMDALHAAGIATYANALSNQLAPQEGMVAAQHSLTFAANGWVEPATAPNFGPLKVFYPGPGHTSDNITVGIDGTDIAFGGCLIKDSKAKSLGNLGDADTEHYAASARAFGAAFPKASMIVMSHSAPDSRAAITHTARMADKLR
Sequence of di-ZnII-NDM-1* (BFA-labeled M67C NDM-1) (C7C422 37-270 M67C): as the sequence (C7C422 37-270 M67C) above

As for `C[C@H]1[C@H](NC(=O)/C(=N\OC(C)(C)C(=O)O)c2csc(N)n2)C(=O)N1S(=O)(=O)O` [aztreonam], the “19F chemical shift change upon addition of ligand (binding)” value in data set [1] (ligand 2.5 mM) is listed as “no ^19F chemical shift change was observed”. Besides, the “reported inhibition of NDM-1” value in data set [2] (ref 9b; cited from earlier work) is reported as “not to inhibit NDM-1”.

As for `O=C(N[C@H](Cc1c[nH]c2ccccc12)C(=O)O)c1nc(Cl)c2ccccc2c1O` [compound 4, (R)-2-(1-chloro-4-hydroxyisoquinoline-3-carboxamido)-3-(1H-indol-3-yl)propanoic acid], in data set [2] (NDM-1; read-out: reported IC50; cited from earlier work), the IC50 (as a rule, the concentration needed to halve the response being measured) is 47 µM.

For `O=C(Cc1cccs1)N[C@@H]1C(=O)N2C(C(=O)O)=C(/C=C/c3ccc([N+](=O)[O-])cc3[N+](=O)[O-])CS[C@H]12` [Nitrocefin], in data set [3], the kcat (as a rule, the maximal rate divided by the concentration of active sites) was found to be 22.9 ± 0.6 s⁻¹ and the Km (in general, the substrate concentration at which the rate is half of its maximum) was determined as 6.2 ± 0.7 µM. In data set [4], the turnover number (kcat) is 25.3±1.6^[a] s^−1.

For the compound `C[C@@H](O)[C@H]1C(=O)N2C(C(=O)O)=C(S[C@@H]3CN[C@H](C(=O)N(C)C)C3)[C@H](C)[C@H]12` [Meropenem], in data set [3], the catalytic constant (kcat) worked out at 67.8 ± 4.3 s⁻¹ and the Michaelis-Menten constant (Km) came to 54.8 ± 9.4 µM.

Take `O=C(N[C@@H](Cc1c[nH]c2ccccc12)C(=O)O)c1nc(Cl)c2ccccc2c1O` [compound 3, (S)-2-(1-chloro-4-hydroxyisoquinoline-3-carboxamido)-3-(1H-indol-3-yl)propanoic acid]: the equilibrium dissociation constant (Kd) (as a rule, a measure of binding affinity in units of concentration) in data set [1] was found to be 131 µM. Further, the IC50 in data set [2] (read-out: reported IC50; NDM-1; cited from earlier work) is 61 µM.

Turning to NDM-1 (Klebsiella pneumoniae), in data set [5], the Km turned out to be 76.6 ± 4.4 µM and the kcat stood at 235 ± 5.6 s⁻¹.
